This note sets out measurements from patent publication US11078198B2 (BRISTOL-MYERS SQUIBB COMPANY, priority 2017, dated 2021).

The target in the experiment is T1, human FXR (Homo sapiens, UniProt Q96RI1).
T1 construct: expressed in transfected cells; host or cells: HEK293 cells stably carrying a 5xGal4-response-element firefly luciferase reporter, transiently transfected with pcDNA3.1-Gal4-FXR
T1 sequence (Q96RI1 262-486 limits assumed): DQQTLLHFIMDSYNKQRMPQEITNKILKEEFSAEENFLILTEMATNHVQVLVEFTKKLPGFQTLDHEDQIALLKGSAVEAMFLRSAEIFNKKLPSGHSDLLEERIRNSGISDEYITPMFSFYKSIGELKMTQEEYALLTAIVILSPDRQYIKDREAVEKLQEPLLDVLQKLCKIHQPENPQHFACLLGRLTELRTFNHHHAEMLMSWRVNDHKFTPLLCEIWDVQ
The experiment in a line: transient human FXR/Gal4-luciferase reporter assay. It is filed as cell-based. Particulars: Gal4-hFXR transfected HEK293 reporter cells; relative to 8 μM GW-4064. An outline of the steps:
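HEK293 cells stably carrying a 5×Gal4-response-element firefly luciferase reporter, transiently transfected overnight with a CMV-driven Gal4 DNA-binding domain/human FXR ligand-binding domain fusion.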
On the technique in general: A reporter such as luciferase makes a cellular process visible.

Usually EC50 stands for the concentration needed to bring the measured effect to its halfway point. Read a low EC50 as a more potent agent.

Regarding `O=C(O)c1cc(C(F)(F)F)c2cc(N3CCC4(C=C(c5c(-c6ccccc6C(F)(F)F)noc5C5CC5)C4)CC3)ccc2n1` [Example 99, 6-(2-(5-Cyclopropyl-3-(2-(trifluoromethyl)phenyl)isoxazol-4-yl)-7-azaspiro[3.5]non-1-en-7-yl)-4-(trifluoromethyl)quinoline-2-carboxylic acid], a half-maximal effect (EC50) was put at 92 nM.
To `O=C(O)c1cc2ccc(N3CCC4(C=C(c5c(-c6c(F)cccc6Cl)noc5C5CC5)C4)CC3)cc2cn1` [Example 158, 7-(2-(3-(2-Chloro-6-fluorophenyl)-5-cyclopropylisoxazol-4-yl)-7-azaspiro[3.5]non-1-en-7-yl)isoquinoline-3-carboxylic acid] belongs 459 nM; to `O=C(O)c1ccc2cc(N3CCC4(C=C(c5c(-c6cccnc6C(F)(F)F)noc5C5CC5)C4)CC3)ccc2n1` [Example 153, 6-(2-(5-Cyclopropyl-3-(2-(trifluoromethyl)pyridin-3-yl)isoxazol-4-yl)-7-azaspiro[3.5]non-1-en-7-yl)quinoline-2-carboxylic acid], 1280 nM.
To `O=C(O)c1ccc2nc(N3CCC4(C=C(c5c(-c6ccccc6OC(F)(F)F)noc5C5CC5)C4)CC3)ccc2c1` [Example 140, 2-(2-(5-Cyclopropyl-3-(2-(trifluoromethoxy)phenyl)isoxazol-4-yl)-7-azaspiro[3.5]non-1-en-7-yl)quinoline-6-carboxylic acid] belongs 133 nM; to `O=C(O)c1cc(F)c2nc(N3CCC4(C=C(c5c(C(F)F)cnn5-c5ccccc5OC(F)(F)F)C4)CC3)sc2c1` [Example 217, 2-(2-(4-(Difluoromethyl)-1-(2-(trifluoromethoxy)phenyl)-1H-pyrazol-5-yl)-7-azaspiro[3.5]non-1-en-7-yl)-4-fluorobenzo[d]thiazole-6-carboxylic acid], 230 nM; to `O=C(O)c1cnc(N2CCC3(C=C(c4c(-c5c(Cl)cccc5Cl)noc4C4CC4)C3)CC2)cc1C(F)(F)F` [Example 116, 6-(2-(5-Cyclopropyl-3-(2,6-dichlorophenyl)isoxazol-4-yl)-7-azaspiro[3.5]non-1-en-7-yl)-4-(trifluoromethyl)nicotinic acid], 135 nM.
With `O=C(O)c1cccc2nc(N3CCC4(C=C(c5c(-c6c(Cl)cncc6Cl)noc5C5CC5)C4)CC3)ccc12` [Example 65, 2-(2-(5-Cyclopropyl-3-(3,5-dichloropyridin-4-yl)isoxazol-4-yl)-7-azaspiro[3.5]non-1-en-7-yl)quinoline-5-carboxylic acid] the figure was 65 nM.
Compound `CC1(c2onc(-c3c(Cl)cncc3Cl)c2C2=CC3(CCN(c4ccc5nc(C(=O)O)cc(C(F)(F)F)c5c4)CC3)C2)CC1` [Example 94, 6-(2-(3-(3,5-Dichloropyridin-4-yl)-5-(1-methylcyclopropyl)isoxazol-4-yl)-7-azaspiro[3.5]non-1-en-7-yl)-4-(trifluoromethyl)quinoline-2-carboxylic acid] displayed an EC50 of 507 nM.
With `O=C(O)c1ccc2cc(N3CCC4(C=C(c5c(-c6c(F)cccc6F)noc5C5CC5)C4)CC3)ccc2n1` [Example 151, 6-(2-(5-Cyclopropyl-3-(2,6-difluorophenyl)isoxazol-4-yl)-7-azaspiro[3.5]non-1-en-7-yl)quinoline-2-carboxylic acid] the figure was 1990 nM; with `COc1cncc(F)c1-c1noc(C2CC2)c1C1=CC2(CCN(c3nc4c(F)cc(C(=O)O)cc4s3)CC2)C1` [Example 69, 2-(2-(5-Cyclopropyl-3-(3-fluoro-5-methoxypyridin-4-yl)isoxazol-4-yl)-7-azaspiro[3.5]non-1-en-7-yl)-4-fluorobenzo[d]thiazole-6-carboxylic acid], 730 nM; with `O=C(O)c1cc(F)c2nc(N3CCC4(CC3)CC(c3c(C(F)F)cnn3-c3ccccc3C(F)(F)F)C4)sc2c1` [Example 215, 2-(2-(4-(Difluoromethyl)-1-(2-(trifluoromethyl)phenyl)-1H-pyrazol-5-yl)-7-azaspiro[3.5]nonan-7-yl)-4-fluorobenzo[d]thiazole-6-carboxylic acid], 995 nM.
With `O=C(O)c1ccc2nc(N3CCC4(C=C(c5c(-c6c(Cl)cccc6Cl)noc5C5CC5)C4)CC3)cnc2c1` [Example 100, 2-(2-(5-cyclopropyl-3-(2,6-dichlorophenyl)isoxazol-4-yl)-7-azaspiro[3.5]non-1-en-7-yl)quinoxaline-6-carboxylic acid] the figure was 33 nM.
With `O=C(O)c1cc2ccc(N3CCC4(C=C(c5c(-c6ncccc6Cl)noc5C5CC5)C4)CC3)cc2cn1` [Example 161, 7-(2-(3-(3-Chloropyridin-2-yl)-5-cyclopropylisoxazol-4-yl)-7-azaspiro[3.5]non-1-en-7-yl) isoquinoline-3-carboxylic acid] the figure was 2320 nM; with `Cc1cc(C(=O)O)nc2ccc(N3CCC4(C=C(c5c(-c6c(Cl)cncc6Cl)noc5C5CC5)C4)CC3)cc12` [Example 87, 6-(2-(5-Cyclopropyl-3-(3,5-dichloropyridin-4-yl)isoxazol-4-yl)-7-azaspiro[3.5]non-1-en-7-yl)-4-methylquinoline-2-carboxylic acid], 76 nM; with `Cc1c(N2CCC3(C=C(c4c(-c5ccccc5C(F)(F)F)noc4C4CC4)C3)CC2)ccc2cc(C(=O)O)cnc12` [Example 170, 7-(2-(5-Cyclopropyl-3-(2-(trifluoromethyl)phenyl)isoxazol-4-yl)-7-azaspiro[3.5]non-1-en-7-yl)-8-methylquinoline-3-carboxylic acid], 1750 nM.
On to `Cn1nc(C(=O)O)c2cc(N3CCC4(C=C(c5c(-c6ccccc6OC(F)(F)F)noc5C5CC5)C4)CC3)ccc21` [Example 174, 5-(2-(5-Cyclopropyl-3-(2-(trifluoromethoxy)phenyl)isoxazol-4-yl)-7-azaspiro[3.5]non-1-en-7-yl)-1-methyl-1H-indazole-3-carboxylic acid], for which a half-maximal effect (EC50) was put at 236 nM.
To `O=C(O)c1cc(C(F)(F)F)c2cc(N3CCC4(C=C(c5c(-c6c(Cl)cc(F)cc6Cl)noc5C5CC5)C4)CC3)ccc2n1` [Example 86, 6-(2-(5-Cyclopropyl-3-(2,6-dichloro-4-fluorophenyl)isoxazol-4-yl)-7-azaspiro[3.5]non-1-en-7-yl)-4-(trifluoromethyl)quinoline-2-carboxylic acid] belongs 68 nM; to `O=C(O)c1cc2ccc(N3CCC4(C=C(c5c(-c6ccccc6C(F)(F)F)noc5C5CC5)C4)CC3)cc2cn1` [Example 159, 7-(2-(5-Cyclopropyl-3-(2-(trifluoromethyl)phenyl)isoxazol-4-yl)-7-azaspiro[3.5]non-1-en-7-yl)isoquinoline-3-carboxylic acid], 254 nM; to `O=C(O)c1ccc2cc(N3CCC4(C=C(c5c(-c6ccncc6Cl)noc5C5CC5)C4)CC3)ccc2n1` [Example 150, 6-(2-(3-(3-Chloropyridin-4-yl)-5-cyclopropylisoxazol-4-yl)-7-azaspiro[3.5]non-1-en-7-yl)quinoline-2-carboxylic acid], 4350 nM.
In the case of `O=C(O)c1ccc(N2CCC3(C=C(c4c(-c5c(Cl)cc(F)cc5Cl)noc4C4CC4)C3)CC2)nc1` [Example 67, 6-(2-(5-Cyclopropyl-3-(2,6-dichloro-4-fluorophenyl)isoxazol-4-yl)-7-azaspiro[3.5]non-1-en-7-yl)nicotinic acid], a half-maximal response (EC50) required 493 nM.
As for `O=C(O)c1cc2ccc(N3CCC4(C=C(c5c(-c6c(F)cccc6Cl)noc5C5CC5)C4)CC3)cc2nn1` [Example 56, 7-(2-(3-(2-Chloro-6-fluorophenyl)-5-cyclopropylisoxazol-4-yl)-7-azaspiro[3.5]non-1-en-7-yl)cinnoline-3-carboxylic acid], the EC50 amounted to 194 nM.
With `O=C(O)c1ccc2nc(N3CCC4(C=C(c5c(-c6c(Cl)cncc6Cl)noc5C5CC5)C4)CC3)sc2c1` [Example 63, 2-(2-(5-Cyclopropyl-3-(3,5-dichloropyridin-4-yl)isoxazol-4-yl)-7-azaspiro[3.5]non-1-en-7-yl)benzo[d]thiazole-6-carboxylic acid] the figure was 62 nM.
Take `O=C(O)c1cc(OC(F)F)c2cc(N3CCC4(C=C(c5c(-c6ccccc6C(F)(F)F)noc5C5CC5)C4)CC3)ccc2n1` [Example 58, 6-(2-(5-Cyclopropyl-3-(2-(trifluoromethyl)phenyl)isoxazol-4-yl)-7-azaspiro[3.5]non-1-en-7-yl)-4-(difluoromethoxy)quinoline-2-carboxylic acid]: the response was half-maximal at 2.3 nM (EC50).
To `O=C(NS(=O)(=O)C1CC1)c1cc(F)c2nc(N3CCC4(C=C(c5c(-c6c(Cl)cccc6Cl)noc5C5CC5)C4)CC3)sc2c1` [Example 179, 2-(2-(5-Cyclopropyl-3-(2,6-dichlorophenyl)isoxazol-4-yl)-7-azaspiro[3.5]non-1-en-7-yl)-N-(cyclopropylsulfonyl)-4-fluorobenzo[d]thiazole-6-carboxamide] belongs 13 nM; to `COc1cc(C(=O)O)nc2ccc(N3CCC4(C=C(c5c(-c6ncccc6Cl)noc5C5CC5)C4)CC3)cc12` [Example 145, 6-(2-(3-(3-Chloropyridin-2-yl)-5-cyclopropylisoxazol-4-yl)-7-azaspiro[3.5]non-1-en-7-yl)-4-methoxyquinoline-2-carboxylic acid], 160 nM.
In the case of `O=C(O)c1cc(C(F)(F)F)c2cc(N3CCC4(C=C(c5c(-c6ccc(F)cc6Cl)noc5C5CC5)C4)CC3)ccc2n1` [Example 96, 6-(2-(3-(2-Chloro-4-fluorophenyl)-5-cyclopropylisoxazol-4-yl)-7-azaspiro[3.5]non-1-en-7-yl)-4-(trifluoromethyl)quinoline-2-carboxylic acid], it took 869 nM to reach a half-maximal effect (EC50).
